How the values were obtained:
[1] = biological target: Recombinant human c-Cbl (aa 47-435) (Homo sapiens (Human), UniProt P22681); assay: c-Cbl Biochemical Assay (TR-FRET)
Method in brief: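 Biotinylated c-Cbl (6 nM) preincubated 30 min RT with compound, then reacted 60-90 min with Src-Zap70 (2.5-10 nM) and 0.5 mM ATP, pH 7.0 HEPES buffer. Stopped with EDTA; 100 nM Bodipy-ubiquitinated UBE2D2 binding read by TR-FRET after 60 min; IC50 from 4-parameter fit.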

[2] = biological target: Recombinant human Cbl-b (aa 36-427) (Homo sapiens (Human), UniProt Q13191); assay: Cbl-b Biochemical Assay (TR-FRET); details: read-out: TR-FRET hCbl-b IC50
Method in brief: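 Two-step TR-FRET: 6 nM biotinylated Cbl-b preincubated 30-60 min with compound, then 60 min at RT with 1-2.5 nM Src-Zap70 and 0.5 mM ATP in HEPES pH 7.0 buffer, 1% DMSO. Stopped with 5 mM EDTA plus 100 nM UBE2D2-Ub-FL-BODIPY and 1 nM streptavidin-Tb, 60 min; 520 nm signal; IC50 from 4-parameter fit.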

Recombinant human c-Cbl (aa 47-435), sequence (P22681 47-435): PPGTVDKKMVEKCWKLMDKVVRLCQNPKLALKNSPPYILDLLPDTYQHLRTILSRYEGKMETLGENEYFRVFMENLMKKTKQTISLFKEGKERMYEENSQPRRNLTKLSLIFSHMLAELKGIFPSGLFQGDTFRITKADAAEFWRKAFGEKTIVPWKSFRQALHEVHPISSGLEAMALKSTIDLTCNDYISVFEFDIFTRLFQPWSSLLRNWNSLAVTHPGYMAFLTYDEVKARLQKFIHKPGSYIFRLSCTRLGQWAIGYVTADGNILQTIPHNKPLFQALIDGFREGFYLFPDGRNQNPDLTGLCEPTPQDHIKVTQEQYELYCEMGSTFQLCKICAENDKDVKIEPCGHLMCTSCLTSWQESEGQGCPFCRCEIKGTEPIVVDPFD
Recombinant human Cbl-b (aa 36-427), sequence (Q13191 36-427): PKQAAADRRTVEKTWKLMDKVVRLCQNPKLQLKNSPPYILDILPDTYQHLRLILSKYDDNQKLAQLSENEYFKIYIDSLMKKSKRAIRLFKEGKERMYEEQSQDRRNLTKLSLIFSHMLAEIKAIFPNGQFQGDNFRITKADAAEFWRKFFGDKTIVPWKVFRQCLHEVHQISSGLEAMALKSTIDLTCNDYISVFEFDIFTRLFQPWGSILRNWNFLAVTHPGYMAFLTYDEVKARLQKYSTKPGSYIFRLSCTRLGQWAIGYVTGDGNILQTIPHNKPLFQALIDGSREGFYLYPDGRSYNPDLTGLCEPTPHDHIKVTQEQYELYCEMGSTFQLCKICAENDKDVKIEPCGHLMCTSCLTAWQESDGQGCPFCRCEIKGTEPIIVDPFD

| Compound | IC50 [1] [nM] | IC50 [2] [nM] |
| --- | --- | --- |
| C[C@H](NCc1ccc2c(c1)C(=O)N(c1cc(-c3ccc(C#N)cc3-c3nncn3C)cc(C3CC3)n1)C2)C1COC1 [ANK-2, (S)-4-(2-Cyclopropyl-6-(6-(((1-(oxetan-3-yl)ethyl)amino)methyl)-1-oxoisoindolin-2-yl)pyridin-4-yl)-3-(4-methyl-4H-1,2,4-triazol-3-yl)benzonitrile] | ≤ 200 | ≤ 200 |
| Cn1cnnc1-c1cc(C#N)ccc1-c1cc(C2CC2)nc(N2Cc3ccc(CNCC4(F)COC4)cc3C2=O)c1 [ANL-2, 4-{2-Cyclopropyl-6-[6-({[(3-fluorooxetan-3-yl)methyl]amino}methyl)-1-oxo-3H-isoindol-2-yl]pyridin-4-yl}-3-(4-methyl-1,2,4-triazol-3-yl)benzonitrile] | ≤ 200 | ≤ 200 |
| Cn1cnnc1-c1cc(C#N)ccc1-c1cc(C2CC2)nc(N2Cc3ccc(CNC(C)(C)C4COC4)cc3C2=O)c1 [ANM-2, 4-{2-Cyclopropyl-6-[6-({[2-(oxetan-3-yl)propan-2-yl]amino}methyl)-1-oxo-3H-isoindol-2-yl]pyridin-4-yl}-3-(4-methyl-1,2,4-triazol-3-yl)benzonitrile] | ≤ 200 | ≤ 200 |
| C[C@@H](NCC1COC1)c1ccc2c(c1)C(=O)N(c1cc(-c3ccc(C#N)cc3-c3nncn3C)cc(C3CC3)n1)C2 [ANN-2, (R)-4-(2-Cyclopropyl-6-(6-(1-((oxetan-3-ylmethyl)amino)ethyl)-1-oxoisoindolin-2-yl)pyridin-4-yl)-3-(4-methyl-4H-1,2,4-triazol-3-yl)benzonitrile] | ≤ 200 | ≤ 200 |
| C[C@H](NCC1COC1)c1ccc2c(c1)C(=O)N(c1cc(-c3ccc(C#N)cc3-c3nncn3C)cc(C3CC3)n1)C2 [ANO-1, (S)-4-(2-Cyclopropyl-6-(6-(1-((oxetan-3-ylmethyl)amino)ethyl)-1-oxoisoindolin-2-yl)pyridin-4-yl)-3-(4-methyl-4H-1,2,4-triazol-3-yl)benzonitrile] | ≤ 200 | ≤ 200 |
| Cn1cnnc1-c1cc(C#N)ccc1-c1cc(C2CC2)nc(N2Cc3ccc(CN[C@H]4CCOC4)cc3C2=O)c1 [ANQ-2, 4-[2-Cyclopropyl-6-(1-oxo-6-{[(3S)-oxolan-3-ylamino]methyl}-3H-isoindol-2-yl)pyridin-4-yl]-3-(4-methyl-1,2,4-triazol-3-yl)benzonitrile] | ≤ 200 | ≤ 200 |
| Cn1cnnc1-c1cc(F)ccc1-c1cc(C2CC2)nc(N2Cc3cc(Cl)c(CN[C@@H]4CCC[C@@H]4O)cc3C2=O)c1 [ANR-2, 5-Chloro-2-{6-cyclopropyl-4-[4-fluoro-2-(4-methyl-1,2,4-triazol-3-yl)phenyl]pyridin-2-yl}-6-({[(1R,2S)-2-hydroxycyclopentyl]amino}methyl)-3H-isoindol-1-one] | ≤ 200 | ≤ 200 |
| COCCN(C)Cc1cc(F)c2c(c1)C(=O)N(c1cc(-c3ccc(C#N)cc3-c3nncn3C)cc(C3CC3)n1)C2 [ANT-1, 4-[2-Cyclopropyl-6-(4-fluoro-6-{[(2-methoxyethyl)(methyl)amino]methyl}-1-oxo-3H-isoindol-2-yl)pyridin-4-yl]-3-(4-methyl-1,2,4-triazol-3-yl)benzonitrile] | ≤ 200 | ≤ 200 |
| Cn1cnnc1-c1cc(C#N)ccc1-c1cc(C2CC2)nc(N2Cc3c(F)cc(CN4C[C@]5(C)C[C@H]4CO5)cc3C2=O)c1 [ANU-3, 4-(2-cyclopropyl-6-(4-fluoro-6-(((1S,4S)-1-methyl-2-oxa-5-azabicyclo[2.2.1]heptan-5-yl)methyl)-1-oxoisoindolin-2-yl)pyridin-4-yl)-3-(4-methyl-4H-1,2,4-triazol-3-yl)benzonitrile] | ≤ 200 | ≤ 200 |
| Cn1cnnc1-c1cc(C#N)ccc1-c1cc(C2CC2)nc(N2Cc3c(F)cc(CN4C[C@@]5(C)C[C@@H]4CO5)cc3C2=O)c1 [ANV-1, 4-(2-Cyclopropyl-6-(4-fluoro-6-(((1R,4R)-1-methyl-2-oxa-5-azabicyclo[2.2.1]heptan-5-yl)methyl)-1-oxoisoindolin-2-yl)pyridin-4-yl)-3-(4-methyl-4H-1,2,4-triazol-3-yl)benzonitrile] | ≤ 200 | ≤ 200 |
| COCC(NCc1cc(F)c2c(c1)C(=O)N(c1cc(-c3ccc(C#N)cc3-c3nncn3C)cc(C3CC3)n1)C2)C(F)(F)F (centres unmarked) [ANW-3, 4-[2-Cyclopropyl-6-(4-fluoro-1-oxo-6-{[(1,1,1-trifluoro-3-methoxypropan-2-yl)amino]methyl}-3H-isoindol-2-yl)pyridin-4-yl]-3-(4-methyl-1,2,4-triazol-3-yl)benzonitrile] | ≤ 200 | ≤ 200 |
| CN(Cc1ccc2c(c1)C(=O)N(c1cc(-c3ccc(C#N)cc3-c3nncn3C)cc(C3CC3)n1)C2)CC1COC1 [ANX-2, 4-[2-Cyclopropyl-6-(6-{[methyl(oxetan-3-ylmethyl)amino]methyl}-1-oxo-3H-isoindol-2-yl)pyridin-4-yl]-3-(4-methyl-1,2,4-triazol-3-yl)benzonitrile] | ≤ 200 | ≤ 200 |
| Cn1cnnc1-c1cc(C#N)ccc1-c1cc(C2CC2)nc(N2Cc3ccc(CNC[C@@H]4CCOC4)cc3C2=O)c1 [ANY-2, 4-{2-Cyclopropyl-6-[1-oxo-6-({[(3S)-oxolan-3-ylmethyl]amino}methyl)-3H-isoindol-2-yl]pyridin-4-yl}-3-(4-methyl-1,2,4-triazol-3-yl)benzonitrile] | ≤ 200 | ≤ 200 |
| Cn1cnnc1-c1cc(C#N)ccc1-c1cc(C2CC2)nc(N2Cc3ccc(CNC[C@H]4CCOC4)cc3C2=O)c1 [ANZ-2, 4-{2-Cyclopropyl-6-[1-oxo-6-({[(3R)-oxolan-3-ylmethyl]amino}methyl)-3H-isoindol-2-yl]pyridin-4-yl}-3-(4-methyl-1,2,4-triazol-3-yl)benzonitrile] | ≤ 200 | ≤ 200 |
| CN(Cc1ccc2c(c1)C(=O)N(c1cc(-c3ccc(C#N)cc3-c3nncn3C)cc(C3CC3)n1)C2)C1CCC1 [AOA-1] | ≤ 200 | ≤ 200 |
| C[C@H](NC1COC1)c1ccc2c(c1)C(=O)N(c1cc(-c3ccc(C#N)cc3-c3nncn3C)cc(C3CC3)n1)C2 [AOB-2, (S)-4-(2-Cyclopropyl-6-(6-(1-(oxetan-3-ylamino)ethyl)-1-oxoisoindolin-2-yl)pyridin-4-yl)-3-(4-methyl-4H-1,2,4-triazol-3-yl)benzonitrile] | ≤ 200 | ≤ 200 |
| C[C@@H](NC1COC1)c1ccc2c(c1)C(=O)N(c1cc(-c3ccc(C#N)cc3-c3nncn3C)cc(C3CC3)n1)C2 [AOC-2] | ≤ 200 | ≤ 200 |
| C[C@@H](c1ccc2c(c1)C(=O)N(c1cc(-c3ccc(C#N)cc3-c3nncn3C)cc(C3CC3)n1)C2)N1CC2(COC2)C1 [AOD-2, 4-(2-Cyclopropyl-6-{6-[(1S)-1-{2-oxa-6-azaspiro[3.3]heptan-6-yl}ethyl]-1-oxo-3H-isoindol-2-yl}pyridin-4-yl)-3-(4-methyl-1,2,4-triazol-3-yl)benzonitrile] | ≤ 200 | ≤ 200 |
| C[C@H](c1ccc2c(c1)C(=O)N(c1cc(-c3ccc(C#N)cc3-c3nncn3C)cc(C3CC3)n1)C2)N1CC2(COC2)C1 [AOE-1, 4-(2-Cyclopropyl-6-{6-[(1R)-1-{2-oxa-6-azaspiro[3.3]heptan-6-yl}ethyl]-1-oxo-3H-isoindol-2-yl}pyridin-4-yl)-3-(4-methyl-1,2,4-triazol-3-yl)benzonitrile] | ≤ 200 | ≤ 200 |
| Cn1cnnc1-c1cc(C#N)ccc1-c1cc(C2CC2)nc(N2Cc3ccc(C(C)(C)NC4CCC4)cc3C2=O)c1 [AOI-1, 4-(2-{6-[2-(Cyclobutylamino)propan-2-yl]-1-oxo-3H-isoindol-2-yl}-6-cyclopropylpyridin-4-yl)-3-(4-methyl-1,2,4-triazol-3-yl)benzonitrile] | ≤ 200 | ≤ 200 |
| C[C@@H](NCc1ccc2c(c1)C(=O)N(c1cc(-c3ccc(C#N)cc3-c3nncn3C)cc(C3CC3)n1)C2)C1CCC1 [AOJ-2, 4-{2-[6-({[(1R)-1-Cyclobutylethyl]amino}methyl)-1-oxo-3H-isoindol-2-yl]-6-cyclopropylpyridin-4-yl}-3-(4-methyl-1,2,4-triazol-3-yl)benzonitrile] | ≤ 200 | ≤ 200 |
| C[C@H](NCc1ccc2c(c1)C(=O)N(c1cc(-c3ccc(C#N)cc3-c3nncn3C)cc(C3CC3)n1)C2)C1CCC1 [AOK-2, 4-{2-[6-({[(1S)-1-Cyclobutylethyl]amino}methyl)-1-oxo-3H-isoindol-2-yl]-6-cyclopropylpyridin-4-yl}-3-(4-methyl-1,2,4-triazol-3-yl)benzonitrile] | ≤ 200 | ≤ 200 |
| Cn1cnnc1-c1cc(C#N)ccc1-c1cc(C2CC2)nc(N2Cc3ccc(CN4CC5(COC5)C4)cc3C2=O)c1 [AOL-1, 4-[2-Cyclopropyl-6-(6-{2-oxa-6-azaspiro[3.3]heptan-6-ylmethyl}-1-oxo-3H-isoindol-2-yl)pyridin-4-yl]-3-(4-methyl-1,2,4-triazol-3-yl)benzonitrile] | ≤ 200 | ≤ 200 |
| Cn1cnnc1-c1cc(C#N)ccc1-c1cc(C2CC2)nc(N2Cc3ccc(CNC(C)(C)C4CCC4)cc3C2=O)c1 [AOM-2, 4-[2-(6-{[(2-Cyclobutylpropan-2-yl)amino]methyl}-1-oxo-3H-isoindol-2-yl)-6-cyclopropylpyridin-4-yl]-3-(4-methyl-1,2,4-triazol-3-yl)benzonitrile] | ≤ 200 | ≤ 200 |
| CN(C)C(=O)CN(Cc1ccc2c(c1)C(=O)N(c1cc(-c3ccc(C#N)cc3-c3nncn3C)cc(C3CC3)n1)C2)CC1COC1 [AON-2, 2-{[(2-{4-[4-Cyano-2-(4-methyl-1,2,4-triazol-3-yl)phenyl]-6-cyclopropylpyridin-2-yl}-3-oxo-1H-isoindol-5-yl)methyl](oxetan-3-ylmethyl)amino}-N,N-dimethylacetamide] | ≤ 200 | ≤ 200 |

Reference: US12325697B2 (Nimbus Clio, Inc., priority 2021, dated 2025)
